Laboratory results taken from PMC6514978, “Synthesis, Antibacterial Activities, Mode of Action and Acute Toxicity Studies of New Oxazolidinone-Fluoroquinolone Hybrids” (Molecules, 2019).
≈ marks a conversion by molar mass, not a printed value.

Assays:
MRSE = experiment: MIC against drug-resistant strain; format: cell-based, S. epidermidis; conditions: Staphylococcus epidermidis, read-out: MIC
Method: (§1) 6 standard strains and 3 clinical isolates were used to the preliminary evaluation of in vitro antibacterial activities of oxazolidinone-fluoroquinolone hybrids.
(§2) Susceptibility testing of oxazolidinone-fluoroquinolone hybrids against various bacteria was performed by the broth microdilution method as outlined by the Clinical and Laboratory Standards Institute (CLSI). Three types of media, including cation-adjusted Mueller Hinton broth, Haemophilus Test Medium and cation-adjusted Mueller Hinton broth that contained 3%–5% lysed horse blood, were used to culture the corresponding bacteria. […] A final inoculum of 5 × 10^5 CFU/mL was used and plates were read after incubation for 16–24 h at 35 °C. […] Standard quality control strains (ATCC) were included throughout. Each determination was repeated in triplicate.

[1] = test system: LZD-resistant E. faecalis; experiment: microbe, parasite or virus in culture; format: cell-based; conditions: Enterococcus faecalis
Method: as §1, §2

[2] = test system: H. parasuis (34) clinical isolates; experiment: Susceptibility of clinical isolates (MIC); format: cell-based, Haemophilus parasuis; conditions: H. parasuis, 34 clinical isolates; for MIC50 / MIC90: Glaesserella parasuis; for MIC50: read-out: MIC50; for MIC90: read-out: MIC90
Method: as §2

[3] = test system: E. faecalis (72) clinical isolates; experiment: Susceptibility of clinical isolates (MIC); format: cell-based, Enterococcus faecalis; conditions: for MIC Range / MIC50 / MIC90: E. faecalis, 72 clinical isolates; for MIC50 / MIC90: Enterococcus faecalis
Method: as §2

[4] = test system: S. aureus (46) clinical isolates; experiment: Susceptibility of clinical isolates (MIC); format: cell-based, Staphylococcus aureus; conditions: for MIC50 / MIC90 / MIC: Staphylococcus aureus, S. aureus, 46 clinical isolates; for MIC50: read-out: MIC50; for MIC90: read-out: MIC90; for MIC: read-out: MIC Range
Method: as §2

[5] = test system: S. pneumoniae (13) clinical isolates; experiment: Susceptibility of clinical isolates (MIC); format: cell-based, Streptococcus pneumoniae; conditions: for MIC50 / MIC90: Streptococcus pneumoniae; for MIC50: read-out: MIC50; for MIC90: read-out: MIC90
Method: as §2

[6] = test system: E. faecium (47) clinical isolates; experiment: Susceptibility of clinical isolates (MIC); format: cell-based, Enterococcus faecium; conditions: for MIC Range / MIC50 / MIC90: E. faecium, 47 clinical isolates; for MIC50 / MIC90: Enterococcus faecium; for MIC50: read-out: MIC50; for MIC90: read-out: MIC90
Method: as §2

[7] = test system: S. epidermidis (10) clinical isolates; experiment: Susceptibility of clinical isolates (MIC); format: cell-based, Staphylococcus epidermidis; conditions: for MIC50 / MIC90 / MIC: Staphylococcus epidermidis, S. epidermidis, 10 clinical isolates; for MIC50: read-out: MIC50; for MIC90: read-out: MIC90; for MIC: read-out: MIC Range
Method: as §2

[8] = test system: S. haemolyticus (32) clinical isolates; experiment: Susceptibility of clinical isolates (MIC); format: cell-based, Staphylococcus haemolyticus; conditions: for MIC50 / MIC90 / MIC: Staphylococcus haemolyticus, S. haemolyticus, 32 clinical isolates; for MIC50: read-out: MIC50; for MIC90: read-out: MIC90; for MIC: read-out: MIC Range
Method: as §2

[9] = test system: S. suis (9) clinical isolates; experiment: Susceptibility of clinical isolates (MIC); format: cell-based, Streptococcus suis; conditions: Streptococcus suis, S. suis, 9 clinical isolates; for MIC50: read-out: MIC50; for MIC90: read-out: MIC90; for MIC: read-out: MIC Range
Method: as §2

CIP-resistant S. aureus = experiment: MIC against drug-resistant strain; format: cell-based; conditions: Staphylococcus aureus; S. aureus, CIP-resistant; read-out: MIC
Method: as §1, §2

[10] = test system: VAN and quinolone-resistant S. pneumoniae; experiment: MIC against drug-resistant strain; format: cell-based; conditions: Streptococcus pneumoniae; S. pneumoniae, VAN and quinolone-resistant; read-out: MIC
Method: as §1, §2

MRSA = experiment: MIC against drug-resistant strain; format: cell-based; conditions: Staphylococcus aureus, read-out: MIC
Method: as §1, §2

[11] = test system: LZD and quinolone-resistant E. faecium; experiment: MIC against drug-resistant strain; format: cell-based; conditions: Enterococcus faecium; E. faecium, LZD and quinolone-resistant; read-out: MIC
Method: as §1, §2

[12] = test system: CIP-resistant S. haemolyticus; experiment: MIC against drug-resistant strain; format: cell-based; conditions: Staphylococcus haemolyticus; S. haemolyticus, CIP-resistant; read-out: MIC
Method: as §1, §2

[13] = test system: VAN and quinolone-resistant E. faecium; experiment: MIC against drug-resistant strain; format: cell-based; conditions: Enterococcus faecium; E. faecium, VAN and quinolone-resistant; read-out: MIC
Method: as §1, §2

[14] = S. pneumoniae, 13 clinical isolates
[15] = S. aureus clinical isolates, CLSI criteria
[16] = S. pneumoniae clinical isolates, CLSI criteria
[17] = E. faecium clinical isolates, CLSI criteria
[18] = S. epidermidis clinical isolates, CLSI criteria
[19] = S. haemolyticus clinical isolates, CLSI criteria

CC1CCc2c(N3CCC(O)CC3)c(F)cc3c(=O)c(C(=O)O)cn1c23 (centres unmarked) [NDFX, nadifloxacin]
MIC (MRSE): 0.125 µg/mL (≈ 0.347 µM) | MIC [1]: 1 µg/mL (≈ 2.77 µM) | MIC50 [2]: ≤ 0.0625 µg/mL | MIC90 [2]: 1 µg/mL (≈ 2.77 µM) | MIC Range [2]: ≤0.0625 to 1 µg/mL | MIC Range [3]: 0.125 to 2 µg/mL | MIC50 [3]: 0.25 µg/mL (≈ 0.694 µM) | MIC90 [3]: 1 µg/mL (≈ 2.77 µM) | MIC50 [4]: 0.5 µg/mL (≈ 1.39 µM) | MIC90 [4]: 0.5 µg/mL (≈ 1.39 µM) | MIC [4]: 0.0625 to 2 µg/mL (≈ 0.173 to 5.55 µM) | MIC50 [5, 14]: 16 µg/mL (≈ 44.4 µM) | MIC90 [5, 14]: > 32 µg/mL | MIC Range [6]: 0.5 to 16 µg/mL | MIC50 [6]: 2 µg/mL (≈ 5.55 µM) | MIC90 [6]: 8 µg/mL (≈ 22.2 µM) | MIC50 [7]: 1 µg/mL (≈ 2.77 µM) | MIC90 [7]: 2 µg/mL (≈ 5.55 µM) | MIC [7]: 0.0625 to 2 µg/mL (≈ 0.173 to 5.55 µM) | MIC50 [8]: ≤ 0.0625 µg/mL | MIC90 [8]: 0.5 µg/mL (≈ 1.39 µM) | MIC [8]: 0.0625 to 4 µg/mL (≈ 0.173 to 11.1 µM) | MIC50 [9]: ≤ 0.0625 µg/mL | MIC90 [9]: 2 µg/mL (≈ 5.55 µM) | MIC [9]: 0.0625 to 4 µg/mL (≈ 0.173 to 11.1 µM) | MIC (CIP-resistant S. aureus): 0.5 µg/mL (≈ 1.39 µM) | MIC [10]: > 32 µg/mL | MIC (MRSA): ≤ 0.0625 µg/mL | MIC [11]: 16 µg/mL (≈ 44.4 µM) | MIC [12]: 4 µg/mL (≈ 11.1 µM) | MIC [13]: 32 µg/mL (≈ 88.8 µM)

CCN1CCN(c2cc3c(cc2F)c(=O)c(C(=O)O)cn3C2CC2)CC1 [ENR, enrofloxacin]
MIC (MRSE): ≤ 0.0625 µg/mL | MIC [1]: 1 µg/mL (≈ 2.78 µM) | MIC50 [2]: ≤ 0.0625 µg/mL | MIC90 [2]: 1 µg/mL (≈ 2.78 µM) | MIC Range [2]: ≤0.0625 to 1 µg/mL | MIC Range [3]: ≤0.0625 to 2 µg/mL | MIC50 [3]: 0.5 µg/mL (≈ 1.39 µM) | MIC90 [3]: 0.5 µg/mL (≈ 1.39 µM) | MIC50 [4]: 2 µg/mL (≈ 5.56 µM) | MIC90 [4]: 4 µg/mL (≈ 11.1 µM) | MIC [4]: 0.0625 to 8 µg/mL (≈ 0.174 to 22.3 µM) | MIC50 [5, 14]: 32 µg/mL (≈ 89 µM) | MIC90 [5, 14]: > 32 µg/mL | MIC50 [6]: 2 µg/mL (≈ 5.56 µM) | MIC90 [6]: 32 µg/mL (≈ 89 µM) | MIC50 [7]: 2 µg/mL (≈ 5.56 µM) | MIC90 [7]: 4 µg/mL (≈ 11.1 µM) | MIC [7]: 0.125 to 4 µg/mL (≈ 0.348 to 11.1 µM) | MIC50 [8]: ≤ 0.0625 µg/mL | MIC90 [8]: 0.5 µg/mL (≈ 1.39 µM) | MIC [8]: 0.0625 to 8 µg/mL (≈ 0.174 to 22.3 µM) | MIC50 [9]: 0.25 µg/mL (≈ 0.696 µM) | MIC90 [9]: 4 µg/mL (≈ 11.1 µM) | MIC [9]: 0.0625 to 8 µg/mL (≈ 0.174 to 22.3 µM) | MIC (CIP-resistant S. aureus): 2 µg/mL (≈ 5.56 µM) | MIC [10]: > 32 µg/mL | MIC (MRSA): 0.25 µg/mL (≈ 0.696 µM) | MIC [11]: > 32 µg/mL | MIC [12]: 8 µg/mL (≈ 22.3 µM) | MIC [13]: > 32 µg/mL

COc1c(N2CCNC(C)C2)c(F)cc2c(=O)c(C(=O)O)cn(C3CC3)c12 (centres unmarked) [GAFX, gatifloxacin]
MIC (MRSE): ≤ 0.0625 µg/mL | MIC [1]: 0.5 µg/mL (≈ 1.33 µM) | MIC50 [2]: ≤ 0.0625 µg/mL | MIC90 [2]: 1 µg/mL (≈ 2.66 µM) | MIC Range [2]: ≤0.0625 to 1 µg/mL | CLSI %S (susceptible) ([3]; E. faecalis clinical isolates, CLSI criteria): 94.6/- % | MIC Range [3]: 0.125 to 2 µg/mL | MIC50 [3]: 0.25 µg/mL (≈ 0.666 µM) | MIC90 [3]: 0.5 µg/mL (≈ 1.33 µM) | CLSI %R (resistant) [4, 15]: 42.4% | CLSI %S (susceptible) [4, 15]: 45.5% | MIC50 [4]: 1 µg/mL (≈ 2.66 µM) | MIC90 [4]: 2 µg/mL (≈ 5.33 µM) | MIC [4]: 0.0625 to 2 µg/mL (≈ 0.166 to 5.33 µM) | CLSI %R (resistant) [5, 16]: 92.3% | CLSI %S (susceptible) [5, 16]: 7.7% | MIC Range [5, 14]: 4 to 32 µg/mL | MIC50 [5, 14]: 4 µg/mL (≈ 10.7 µM) | MIC90 [5, 14]: 32 µg/mL (≈ 85.2 µM) | CLSI %R (resistant) [6, 17]: 13.8% | CLSI %S (susceptible) [6, 17]: 86.2% | MIC Range [6]: 0.25 to 8 µg/mL | MIC50 [6]: 1 µg/mL (≈ 2.66 µM) | MIC90 [6]: 8 µg/mL (≈ 21.3 µM) | CLSI %R (resistant) [7, 18]: 50.0% | CLSI %S (susceptible) [7, 18]: 30.0% | MIC50 [7]: 1 µg/mL (≈ 2.66 µM) | MIC90 [7]: 2 µg/mL (≈ 5.33 µM) | MIC [7]: 0.125 to 2 µg/mL (≈ 0.333 to 5.33 µM) | CLSI %R (resistant) [8, 19]: 3.8% | CLSI %S (susceptible) [8, 19]: 96.2% | MIC50 [8]: 0.125 µg/mL (≈ 0.333 µM) | MIC90 [8]: 0.25 µg/mL (≈ 0.666 µM) | MIC [8]: 0.0625 to 2 µg/mL (≈ 0.166 to 5.33 µM) | MIC50 [9]: ≤ 0.0625 µg/mL | MIC90 [9]: 4 µg/mL (≈ 10.7 µM) | MIC [9]: 0.0625 to 4 µg/mL (≈ 0.166 to 10.7 µM) | MIC (CIP-resistant S. aureus): 2 µg/mL (≈ 5.33 µM) | MIC [10]: > 32 µg/mL | MIC (MRSA): 0.125 µg/mL (≈ 0.333 µM) | MIC [11]: 8 µg/mL (≈ 21.3 µM) | MIC [12]: 2 µg/mL (≈ 5.33 µM) | MIC [13]: 16 µg/mL (≈ 42.6 µM)
